# Test results published in ChEMBL document CHEMBL1201862, “PubChem BioAssay data set” (2004).
#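 Dose response: 5 concentrations. Exposure: 48 h. Format: 96-well plates. Endpoint: linear interpolation; highest concentration if not reached. At the GI50, growth is halved.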 The source made the active and inactive calls. Cut-off read from the data, not from the text of the source: active = GI50 up to about 1.1 µM and inactive = higher.
# Legend:
# Experiment in all cases: growth of human tumour cells (NCI), 48 h
# [1] = test system: M19-MEL
# [2] = test system: DLD-1
# [3] = test system: SK-OV-3
# [4] = test system: NCI-H23
# [5] = test system: DMS-114
# [6] = test system: KM12
# [7] = test system: SN12C
# [8] = test system: SW-620
# [9] = test system: SK-MEL-28
# [10] = test system: SR
# [11] = test system: TK-10
# [12] = test system: HCT-116
# [13] = test system: UO-31
# [14] = test system: SNB-19
# [15] = test system: LXFL 529
# [16] = test system: LOX IMVI
# [17] = test system: OVCAR-8
# [18] = test system: SK-MEL-2
# [19] = test system: Malme-3M
# [20] = test system: HT-29
# [21] = test system: XF498
# [22] = test system: NCI-H522
# [23] = test system: COLO 205
# [24] = test system: M14
# [25] = test system: SF-268
# [26] = test system: SF-539
# [27] = test system: SF-295
# [28] = test system: CCRF-CEM
# [29] = test system: EKVX
# [30] = test system: U-251
# [31] = test system: DMS-273
# [32] = test system: MOLT-4
# [33] = test system: 786-0
# [34] = test system: NCI-H460
# [35] = test system: CAKI-1
# [36] = test system: RXF 393
# [37] = test system: ACHN
# [38] = test system: NCI-H226
# [39] = test system: KM-20L2
# [40] = test system: HCC 2998
# [41] = test system: HOP-62
# [42] = test system: OVCAR-3
# [43] = test system: OVCAR-5
# [44] = test system: HCT-15
# [45] = test system: K562
# [46] = test system: SNB-75
# [47] = test system: OVCAR-4
# [48] = test system: UACC-257
# [49] = test system: A549
# [50] = test system: HL-60
# [51] = test system: RPMI-8226
# [52] = test system: IGROV-1
# [53] = test system: BT-549
# [54] = test system: HOP-92
# [55] = test system: A498
# [56] = test system: PC-3
# [57] = test system: DU-145
# [58] = test system: UACC-62
# [59] = test system: SK-MEL-5
# [60] = test system: T47D
# [61] = test system: MDA-N
# [62] = test system: MCF7
# [63] = test system: NCI/ADR-RES
# [64] = test system: Hs-578T
# [65] = test system: MDA-MB-435
# [66] = test system: MDA-MB-231
structure (smiles),measurement,setting,value
C=CCCOC(=O)CO[N+](=O)[O-],GI50,[1],> 100 µM (inactive)
same,GI50,[2],> 100 µM (inactive)
same,GI50,[3],> 100 µM (inactive)
same,GI50,[4],> 100 µM (inactive)
same,GI50,[5],> 100 µM (inactive)
same,GI50,[6],> 100 µM (inactive)
same,GI50,[7],> 100 µM (inactive)
same,GI50,[8],> 100 µM (inactive)
same,GI50,[9],> 100 µM (inactive)
same,GI50,[10],> 100 µM (inactive)
same,GI50,[11],> 100 µM (inactive)
same,GI50,[12],> 100 µM (inactive)
same,GI50,[13],> 100 µM (inactive)
same,GI50,[14],> 100 µM (inactive)
same,GI50,[15],> 100 µM (inactive)
same,GI50,[16],> 100 µM (inactive)
same,GI50,[17],> 100 µM (inactive)
same,GI50,[18],> 100 µM (inactive)
same,GI50,[19],> 100 µM (inactive)
same,GI50,[20],> 100 µM (inactive)
same,GI50,[21],> 100 µM (inactive)
same,GI50,[22],> 100 µM (inactive)
same,GI50,[23],> 100 µM (inactive)
same,GI50,[24],> 100 µM (inactive)
same,GI50,[25],> 100 µM (inactive)
same,GI50,[26],> 100 µM (inactive)
same,GI50,[27],> 100 µM (inactive)
same,GI50,[28],> 100 µM (inactive)
same,GI50,[29],> 100 µM (inactive)
same,GI50,[30],> 100 µM (inactive)
same,GI50,[31],> 100 µM (inactive)
same,GI50,[32],> 100 µM (inactive)
same,GI50,[33],> 100 µM (inactive)
same,GI50,[34],> 100 µM (inactive)
same,GI50,[35],> 100 µM (inactive)
same,GI50,[36],> 100 µM (inactive)
same,GI50,[37],> 100 µM (inactive)
same,GI50,[38],> 100 µM (inactive)
same,GI50,[39],> 100 µM (inactive)
same,GI50,[40],> 100 µM (inactive)
same,GI50,[41],> 100 µM (inactive)
same,GI50,[42],> 100 µM (inactive)
same,GI50,[43],> 100 µM (inactive)
same,GI50,[44],> 100 µM
same,GI50,[45],> 100 µM (inactive)
same,GI50,[46],> 100 µM (inactive)
same,GI50,[47],> 100 µM (inactive)
same,GI50,[48],> 100 µM (inactive)
same,GI50,[49],> 100 µM (inactive)
same,GI50,[50],23.2 µM (inactive)
same,GI50,[51],> 100 µM (inactive)
same,GI50,[52],> 100 µM (inactive)
COc1ccc(/C=C\c2cc(OC)c(OC)c(OC)c2)cc1O,GI50,[11],56.9 µM (inactive)
same,GI50,[20],3.84 µM (inactive)
same,GI50,[23],2.9 µM (inactive)
same,GI50,[53],23.9 µM (inactive)
same,GI50,[29],14.7 µM (inactive)
same,GI50,[39],2.01 µM (inactive)
same,GI50,[43],5.43 µM (inactive)
same,GI50,[52],< 0.02 µM (active)
COc1cc2c(cc1O)CCN(C)[C@H]2Cc1ccc(Oc2c(O)c(OC)cc3c2C[C@H]2c4c(c(OC)c(OC)c(OC)c4-3)CCN2C)cc1 [THALIFABERIDINE],GI50,[54],1.69 µM (inactive)
same,GI50,[3],5.42 µM (inactive)
same,GI50,[4],6.41 µM (inactive)
same,GI50,[6],4.11 µM (inactive)
same,GI50,[7],5.35 µM (inactive)
same,GI50,[8],4.71 µM (inactive)
same,GI50,[9],6.56 µM (inactive)
same,GI50,[55],7.41 µM (inactive)
same,GI50,[56],4.31 µM (inactive)
same,GI50,[10],1.61 µM (inactive)
same,GI50,[11],6.11 µM (inactive)
same,GI50,[12],2.99 µM (inactive)
same,GI50,[13],4.98 µM (inactive)
same,GI50,[14],6.34 µM (inactive)
same,GI50,[16],1.72 µM (inactive)
same,GI50,[17],4.16 µM (inactive)
same,GI50,[18],6.82 µM (inactive)
same,GI50,[19],7.85 µM (inactive)
same,GI50,[20],2.85 µM (inactive)
same,GI50,[22],5.55 µM (inactive)
same,GI50,[57],6.34 µM (inactive)
same,GI50,[58],3.97 µM (inactive)
same,GI50,[23],7.08 µM (inactive)
same,GI50,[53],5.75 µM (inactive)
same,GI50,[59],2.9 µM (inactive)
same,GI50,[24],5.4 µM (inactive)
same,GI50,[25],5.66 µM (inactive)
same,GI50,[60],6.05 µM (inactive)
same,GI50,[26],5.9 µM (inactive)
same,GI50,[27],5.79 µM (inactive)
same,GI50,[61],4.94 µM (inactive)
same,GI50,[28],2.92 µM (inactive)
same,GI50,[29],5.92 µM (inactive)
same,GI50,[30],4.38 µM (inactive)
same,GI50,[32],3 µM (inactive)
same,GI50,[33],4.53 µM (inactive)
same,GI50,[62],5.13 µM (inactive)
same,GI50,[34],2.09 µM (inactive)
same,GI50,[63],5.56 µM (inactive)
same,GI50,[35],5.06 µM (inactive)
same,GI50,[64],5.3 µM (inactive)
same,GI50,[36],1.75 µM (inactive)
same,GI50,[37],5.71 µM (inactive)
same,GI50,[38],7.46 µM (inactive)
same,GI50,[40],3.08 µM (inactive)
same,GI50,[41],6.01 µM (inactive)
same,GI50,[42],5.36 µM (inactive)
same,GI50,[65],3.51 µM (inactive)
same,GI50,[43],7.5 µM (inactive)
same,GI50,[44],4.43 µM
same,GI50,[45],0.966 µM (active)
same,GI50,[66],3.04 µM (inactive)
same,GI50,[46],4.51 µM (inactive)
same,GI50,[47],2.3 µM (inactive)
same,GI50,[48],7.01 µM (inactive)
same,GI50,[49],4.94 µM (inactive)
same,GI50,[50],4.24 µM (inactive)
same,GI50,[51],1.51 µM (inactive)
same,GI50,[52],5.43 µM (inactive)
